This passage reports CC50, EC50 and EC90 results from US10752584B2 (EMORY UNIVERSITY, priority 2016, dated 2020).

Assay type in all cases: cell-based
Data set [1] can be described thus: Cellular toxicity assay in human PBM cells. Particulars: human, read-out: Cytotoxicity. As for the experimental part:
(§1) The toxicity of the compounds was assessed in Vero, human PBM, CEM (human lymphoblastoid), MT-2, and HepG2 cells, as described previously (see Schinazi R. F., Sommadossi J.-P., Saalmann V., Cannon D. L., Xie M.-Y., Hart G. C., Smith G. A. & Hahn E. F. Antimicrob. Agents Chemother. 1990, 34, 1061-67). Cycloheximide was included as positive cytotoxic control, and untreated cells exposed to solvent were included as negative controls. The cytotoxicity IC50 was obtained from the concentration-response curve using the median effective method described previously (see Chou T.-C. & Talalay P. Adv. Enzyme Regul. 1984, 22, 27-55; Belen'kii M. S. & Schinazi R. F. Antiviral Res. 1994, 25, 1-11).

The nature of data set [2]: Cellular toxicity assay in CEM cells. The following applies: human, read-out: Cytotoxicity. As for the experimental part: as §1
Data set [3] can be described thus: Cellular toxicity assay in Vero cells. Particulars: African green monkey, read-out: Cytotoxicity. The method, then: as §1
A short description of data set [4]: Cellular toxicity assay in HepG2 cells. The following applies: human, read-out: Cytotoxicity. As for the experimental part:
as §1

Another data set has as its system wild type HBV. The experiment in a line: Anti-HBV assay in AD-38 cell line. Particulars: Hepatitis B virus; for EC50: read-out: Anti-HBV activity EC50; for EC90: read-out: Anti-HBV activity EC90. The method, then:
The anti-HBV activity of the compounds was determined by treating the AD-38 cell line carrying wild type HBV under the control of tetracycline (see Ladner S. K., Otto M. J., Barker C. S., Zaifert K., Wang G. H., Guo J. T., Seeger C. & King R. W. Antimicrob. Agents Chemother. 1997, 41, 1715-20). Removal of tetracycline from the medium [Tet (−)] results in the production of HBV. The levels of HBV in the culture supernatant fluids from cells treated with the compounds were compared with that of the untreated controls. Control cultures with tetracycline [Tet (+)] were also maintained to determine the basal levels of HBV expression. 3TC was included as positive control.
The median effective concentrations (EC50) ranges of several of the compounds described herein against HBV are shown in Table 3: […]

Setting [5] is: AD-38 cells, HBV in culture supernatant.

Read-outs that look alike come from different tables or passages of the source.

As to `C#CCNC(=O)C(=O)c1c(C)c(C(=O)Nc2ccc(F)c(C#N)c2)n(C)c1C` [Compound 7b, N-(3-cyano-4-fluorophenyl)-1,3,5-trimethyl-4-(2-oxo-2-(prop-2-yn-1-ylamino)acetyl)-1H-pyrrole-2-carboxamide], the CC50 in data set [1] (human PBM cells), in data set [2] (CEM lymphoblastoid cells), in data set [3] and in data set [4] was > 100 µM each time. In the data set with wild type HBV (setting [5]), the EC50 lay within 0.01 to 0.09 µM. Further, in the data set on wild type HBV (setting [5]), the EC90 is 0.1 to 0.9 µM.
As for `C=CCn1cc(CNC(=O)C(=O)c2c(C)c(C(=O)Nc3ccc(F)c(F)c3)n(C)c2C)nn1` [Compound 8], the CC50 is 60.5 µM in data set [1], 45.4 µM in data set [2], > 100 µM in data set [3] and 98.6 µM in data set [4]. The EC50 in the data set on wild type HBV lay in the range of 0.001 to 0.009 µM. Moreover, in the data set with wild type HBV, the EC90 was 0.01 to 0.09 µM.
For `C#CCNS(=O)(=O)c1cc(C(=O)Nc2ccc(F)c(F)c2)n(C)c1` [Compound 17, N-(3,4-Difluorophenyl)-1-methyl-4-(N-(prop-2-yn-1-yl)sulfamoyl)-1H-pyrrole-2-carboxamide], the CC50 was > 100 µM in data set [1] (human PBM cells), 53 µM in data set [2] (CEM lymphoblastoid cells) and 41 µM in data set [3]. Moreover, in the data set on wild type HBV (setting [5]), the EC50 is 0.1 to 0.9 µM. In addition, in the data set with wild type HBV (setting [5]), the EC90 was in the range of 1 to 9 µM.
In the case of `C=CCNC(=O)C(=O)c1cc(C(=O)Nc2ccc(F)c(F)c2)n(C)c1` [Compound 25, 4-(2-(allylamino)-2-oxoacetyl)-N-(3,4-difluorophenyl)-1-methyl-1H-pyrrole-2-carboxamide], the CC50 is > 100 µM in data set [1] (human PBM cells), > 100 µM in data set [2] (CEM lymphoblastoid cells), 68.1 µM in data set [3] and > 100 µM in data set [4]. The EC50 with wild type HBV (setting [5]) fell in the range of 0.01 to 0.09 µM. For the same molecule, the EC90 with wild type HBV (setting [5]) fell in the range of 1 to 9 µM.
For `Cn1cc(C(=O)C(=O)Nc2nccs2)cc1C(=O)Nc1ccc(F)c(F)c1` [Compound 26, N-(3,4-difluorophenyl)-1-methyl-4-(2-oxo-2-(thiazol-2-ylamino)acetyl)-1H-pyrrole-2-carboxamide], the CC50 is > 100 µM in data set [1] (human PBM cells), > 100 µM in data set [2] (CEM lymphoblastoid cells), 31.2 µM in data set [3] and > 100 µM in data set [4]. Also, the EC50 in the data set with wild type HBV (setting [5]) fell in the range of 0.1 to 0.9 µM. The EC90 with wild type HBV (setting [5]) is 1 to 9 µM.
As to `Cn1cc(C(=O)C(=O)NOC2CCCC2)cc1C(=O)Nc1ccc(F)c(F)c1` [Compound 27, 4-(2-((cyclopentyloxy)amino)-2-oxoacetyl)-N-(3,4-difluorophenyl)-1-methyl-1H-pyrrole-2-carboxamide], the results for the CC50 in data set [2] (CEM lymphoblastoid cells), in data set [3] and in data set [4] were 37.9 µM, 80.1 µM and > 100 µM, respectively. For the same molecule, the EC50 in the data set with wild type HBV (setting [5]) lay in the range of 0.01 to 0.09 µM. In addition, in the data set with wild type HBV (setting [5]), the EC90 fell in the range of 1 to 9 µM.
The like results for `Cn1cc(C(=O)C(=O)Nc2ccccc2)cc1C(=O)Nc1ccc(F)c(F)c1` [Compound 28, N-(3,4-difluorophenyl)-1-methyl-4-(2-oxo-2-(phenylamino)acetyl)-1H-pyrrole-2-carboxamide] were, in that order, > 100 µM, 13.4 µM, > 100 µM, 0.01 to 0.09 µM and 1 to 9 µM.
In the same order, the values of `Cn1cc(C(=O)C(=O)NCC#N)cc1C(=O)Nc1ccc(F)c(F)c1` [Compound 30, 4-(2-((cyanomethyl)amino)-2-oxoacetyl)-N-(3,4-difluorophenyl)-1-methyl-1H-pyrrole-2-carboxamide] are > 100 µM, 91.4 µM, > 100 µM, 1 to 9 µM and 1 to 9 µM.
`Cn1cc(C(=O)C(=O)N2CCOCC2)cc1C(=O)Nc1ccc(F)c(F)c1` [Compound 31, N-(3,4-difluorophenyl)-1-methyl-4-(2-morpholino-2-oxoacetyl)-1H-pyrrole-2-carboxamide]: the CC50 in data set [1] (human PBM cells) is > 100 µM; in data set [2] (CEM lymphoblastoid cells), > 100 µM; in data set [3], 41.9 µM; in data set [4] it was 93.9 µM. For the same molecule, the EC50 in the data set on wild type HBV (setting [5]) is 0.01 to 0.09 µM. For the same molecule, in the data set with wild type HBV (setting [5]), the EC90 was in the range of 1 to 9 µM.
`Cn1cc(C(=O)C(=O)N2CC(F)(F)C2)cc1C(=O)Nc1ccc(F)c(F)c1` [Compound 32, 4-(2-(3,3-difluoroazetidin-1-yl)-2-oxoacetyl)-N-(3,4-difluorophenyl)-1-methyl-1H-pyrrole-2-carboxamide]: the CC50 in data set [1] (human PBM cells), in data set [2] (CEM lymphoblastoid cells), in data set [3] and in data set [4] was > 100 µM each time. The EC50 in the data set with wild type HBV (setting [5]) lay in the range of 1 to 9 µM. Also, the EC90 in the data set with wild type HBV (setting [5]) lay in the range of 1 to 9 µM.
On to `Cn1cc(NS(=O)(=O)c2ccccc2)cc1C(=O)Nc1ccc(F)c(F)c1` [Compound 36, N-(3,4-difluorophenyl)-1-methyl-4-(phenylsulfonamido)-1H-pyrrole-2-carboxamide], for which the CC50 was 13.9 µM in data set [1] (human PBM cells), 36.7 µM in data set [2] (CEM lymphoblastoid cells), 22.9 µM in data set [3] and 43.5 µM in data set [4]. Also, the EC50 in the data set with wild type HBV (setting [5]) is 0.1 to 0.9 µM. Also, the EC90 with wild type HBV (setting [5]) was in the range of 1 to 9 µM.
With `Cc1c(C(=O)C(=O)NCc2c[nH]nn2)c(C)n(C)c1C(=O)Nc1ccc(F)c(F)c1` [Compound 38, 4-(2-(((1H-1,2,3-triazol-4-yl)methyl)amino)-2-oxoacetyl)-N-(3,4-difluorophenyl)-1,3,5-trimethyl-1H-pyrrole-2-carboxamide], the CC50 in data set [1] (human PBM cells) was > 100 µM; in data set [2] (CEM lymphoblastoid cells), 29 µM; in data set [3] it was 45 µM; in data set [4], 85 µM. Also, in the data set with wild type HBV (setting [5]), the EC50 was 0.001 to 0.009 µM. Besides, the EC90 with wild type HBV (setting [5]) lay in the range of 0.1 to 0.9 µM.
Regarding `Cc1c(C(=O)C(=O)Nc2ccccn2)c(C)n(C)c1C(=O)Nc1ccc(F)c(F)c1` [Compound 43, N-(3,4-difluorophenyl)-1,3,5-trimethyl-4-(2-oxo-2-(pyridin-2-ylamino)acetyl)-1H-pyrrole-2-carboxamide], the CC50 was > 100 µM in data set [1] (human PBM cells), 50 µM in data set [2] (CEM lymphoblastoid cells), > 100 µM in data set [3] and > 100 µM in data set [4]. Also, in the data set on wild type HBV (setting [5]), the EC50 fell in the range of 0.01 to 0.09 µM. For the same molecule, the EC90 in the data set with wild type HBV (setting [5]) is 0.1 to 0.9 µM.
Consider `Cc1c(C(=O)C(=O)N2CCN(C)CC2)c(C)n(C)c1C(=O)Nc1ccc(F)c(F)c1` [Compound 44, N-(3,4-difluorophenyl)-1,3,5-trimethyl-4-(2-(4-methylpiperazin-1-yl)-2-oxoacetyl)-1H-pyrrole-2-carboxamide], for which the CC50 in data set [1] (human PBM cells) is 92 µM; in data set [2] (CEM lymphoblastoid cells), 17 µM; in data set [3], > 100 µM; in data set [4] it was 90 µM. The EC50 in the data set on wild type HBV (setting [5]) lay within 0.1 to 0.9 µM. The EC90 with wild type HBV (setting [5]) was in the range of 1 to 9 µM.
Consider `CCN(CC)C(=O)C(=O)c1c(C)c(C(=O)Nc2ccc(F)c(F)c2)n(C)c1C` [Compound 45, 4-(2-(diethylamino)-2-oxoacetyl)-N-(3,4-difluorophenyl)-1,3,5-trimethyl-1H-pyrrole-2-carboxamide], for which the CC50 worked out at 90 µM in data set [1] (human PBM cells), 36 µM in data set [2] (CEM lymphoblastoid cells), 47 µM in data set [3] and 75 µM in data set [4]. In addition, the EC50 in the data set on wild type HBV (setting [5]) was in the range of 0.1 to 0.9 µM. In addition, the EC90 with wild type HBV (setting [5]) fell in the range of 1 to 9 µM.
Regarding `Cc1c(C(=O)C(=O)Nc2nc3ccccc3[nH]2)c(C)n(C)c1C(=O)Nc1ccc(F)c(F)c1` [Compound 46, 4-(2-((1H-benzo[d]imidazol-2-yl)amino)-2-oxoacetyl)-N-(3,4-difluorophenyl)-1,3,5-trimethyl-1H-pyrrole-2-carboxamide], the CC50 is > 100 µM in data set [1] (human PBM cells), 38 µM in data set [2] (CEM lymphoblastoid cells), 10 µM in data set [3] and 7 µM in data set [4]. In the data set with wild type HBV (setting [5]), the EC50 fell in the range of 0.1 to 0.9 µM. Moreover, the EC90 with wild type HBV (setting [5]) was in the range of 1 to 9 µM.
Consider `Cc1c(C(=O)C(=O)NCc2ccccn2)c(C)n(C)c1C(=O)Nc1ccc(F)c(F)c1` [Compound 47, N-(3,4-difluorophenyl)-1,3,5-trimethyl-4-(2-oxo-2-((pyridin-2-ylmethyl)amino)acetyl)-1H-pyrrole-2-carboxamide], for which the CC50 is > 100 µM in data set [1] (human PBM cells), 47 µM in data set [2] (CEM lymphoblastoid cells), 51 µM in data set [3] and 35 µM in data set [4]. In addition, in the data set with wild type HBV (setting [5]), the EC50 fell in the range of 0.01 to 0.09 µM. Further, in the data set on wild type HBV (setting [5]), the EC90 fell in the range of 0.1 to 0.9 µM.
On to `C#CCNC(=O)C(=O)c1c(C)c(C(=O)Nc2ccc(OC(F)(F)F)cc2)n(C)c1C` [Compound 54, 1,3,5-trimethyl-4-(2-oxo-2-(prop-2-yn-1-ylamino)acetyl)-N-(4-(trifluoromethoxy)phenyl)-1H-pyrrole-2-carboxamide], for which the CC50 in data set [1] (human PBM cells) turned out to be 3 µM; in data set [2] (CEM lymphoblastoid cells) it was 4 µM; in data set [3] it was 6 µM. Further, in the data set on wild type HBV (setting [5]), the EC50 fell in the range of 1 to 9 µM.

As a reminder, the EC50 is the midpoint of the concentration-response curve. Broadly, the EC90 is the concentration needed for an effect of 90%.
